These results are taken from patent US10111885B2, “Compositions and therapeutic methods for the treatment of complement-associated diseases” (Resverlogix Corp., priority 2015, dated 2018).

Like-named read-outs stand apart in the source and are kept apart here.

One assay relates to C1S mRNA. The assay is described as follows: Complement gene mRNA expression, TaqMan real-time PCR, Huh-7 cells. Type of assay: cell-based. Conditions: Homo sapiens; Huh-7, 48 h treatment; read-out: C1S (48 h) mRNA, half maximal inhibitory concentration (IC50). From the text:
(§1) In this example, mRNA levels from cultured cells were quantitated. The assay can be used to determine the effect of compound(s) on regulating mRNA levels, including those compounds in the present invention. Complement genes are expressed at high endogenous levels, but their expression can also be stimulated with various cytokines in inflammatory conditions. Experiments in this example target both basal and inflammatory complement gene expression. Compound mediated changes in gene expression and resulting mRNA levels are presented in Tables 2, 3 and 4 as well as FIGS. 1, 2, 3 and 4 below.
(§2) Huh-7 and HepG2 cells are liver-derived cell lines and are models for what can occur in the liver. Huh-7 cells (JCRB Cell Bank) were introduced to 96-well plates (^˜2.5×10^5 per well) in 100 μL DMEM containing 10% (v/v) FBS, 100 U/mL penicillin, 100 ug/mL streptomycin and 5 ug/mL plasmocin (all reagents from Gibco, except for the former, which was obtained from Invivogen). After 24 h, Huh-7 cells were treated with compounds in the same media formulation used for plating, and supplemented with 0.1% DMSO for the amount of time indicated in tables 2, 3, and 4. For select experiments, 24 h post-plating, cells were treated with cytokines and the compound of interest simultaneously, for a total treatment time of 48 h. Alternatively, 24 h after plating, cells were pre-treated with cytokines for 24 h before adding the compound of interest for 48 h. HepG2 cells (ATCC) were cultured in 96-well plates (^˜2.5×10^5 per well) in MEM containing 10% FBS, 1× non-essential amino acids, 1 mM sodium pyruvate, 2 mM L-glutamine, 100 U/mL penicillin, 100 ug/mL streptomycin and 5 ug/mL plasmocin. Serum amount was reduced to 0.5% for treatments with compound or cytokines. Timing of treatment of HepG2 cells with compounds and cytokines was as described for Huh-7 cells. Primary human hepatocytes (CellzDirect/Life Technologies) were plated in collagen coated 96-well plates at 70 000 cells/well, then overlaid with Matrigel™ as recommended by the supplier. Cells were treated with compounds of interest and/or cytokines for the indicated time points in the recommended media supplemented with 0.1% DMSO and 10% FBS (v/v). Cells were harvested by mRNA Catcher PLUS Kit (Life Technologies) followed by real-time PCR using the RNA UltraSense One-Step qRT-PCR System. The level of the mRNA of interest was measured by TaqMan real-time PCR relative to the endogenous control cyclophilin A in the same sample. […]
(§3) Downregulation of expression of components of the complement cascade will result in reduced activity of the pathway and thus will constitute a positive result. […] Table 4 lists the maximum reduction in the indicated mRNA measured in primary human hepatocytes treated with compounds for up to 72 hours. […]
For orientation: Real-time PCR tracks product formation cycle by cycle.

The test system of another assay is MBL2 mRNA. Described as above. It is filed as cell-based. The note with it: Homo sapiens; Huh-7, 48 h treatment; read-out: MBL2 (48 h) mRNA, half maximal inhibitory concentration (IC50).
From the text: as §1, §2, §3

A further assay concerns complement C5 protein. The assay can be described thus: Secreted complement protein ELISA, Huh-7 cells. Type of assay: cell-based, human. Conditions: for C5 secretion, percent maximum reduction in protein levels: Huh-7, 72 h, ± standard deviation. As to the method: (§4) In this example, protein secretion from cells grown in culture in the presence of compound of interest was analyzed by enzyme linked immunosorbent assay (ELISA). In some cases, cultured cells were treated with cytokines and the compound of interest to mimic an inflammatory state. The method can be used to determine the effect of compounds, including those in the present invention, on the secretion of specific proteins from cells grown in culture under basal and cytokine stimulated (i.e. inflammatory) conditions (Table 7, FIGS. 5 and 6).
(§5) Huh-7 cells (JCRB Cell Bank) were introduced to 24-well plates in 500 μL DMEM supplemented with 10% (v/v) FBS, 100 U/mL penicillin, 100 ug/mL streptomycin and 5 ug/mL plasmocin (all reagents from Gibco, except for the former, which comes from Invivogen) at 200 000 cells/well. After 24 h, cells were treated with the compound of interest and/or cytokines in DMEM with 10% FBS containing 0.1% DMSO for a total treatment time of 72 h. Fresh media containing compounds and/or cytokines was introduced in the final 24 h of the experiment. At harvest, media were collected, debris was removed by brief centrifugation, and ELISA assays for the indicated proteins were performed as per the manufacturer's protocol. To correct for differences in cell numbers, values obtained for complement proteins were normalized to values for transferrin. HepG2 cells (ATCC) were cultured in MEM containing 10% FBS, 1× non-essential amino acids, 1 mM sodium pyruvate, 2 mM L-glutamine, 100 U/mL penicillin, 100 ug/mL streptomycin and 5 ug/mL plasmocin. Serum amount was reduced to 0.5% when compounds were present. Treatment combinations and timing were as described above for Huh-7 cells. Primary human hepatocytes (CellzDirect/Life Technologies) were plated in collagen coated 96-well plates at 70 000 cells/well, then overlaid with Matrigel™ as recommended by the supplier. Cells were treated with compounds of interest with or without the indicated cytokines for a total of 72 h in the recommended media supplemented with 10% FBS and 0.1% DMSO (v/v). Media were collected for measurements of secreted proteins.
(§6) The ELISA kits for detection of complement C3, C4, C5 and C9 were obtained from AssayPro (St. Charles, Mo.), while the ELISA reagents for transferrin detection were from Bethyl Laboratories (Montgomery, Tex.). Data were collected on a Thermo Scientific Multiskan GO apparatus. Downregulation of expression of components of the complement cascade will result in reduced activity of the pathway and thus will constitute a positive result.
For orientation: An ELISA detects its analyte on a solid surface through an enzyme-linked reagent.

In the next assay the test system is complement C4 protein. The assay can be described thus: Secreted complement protein ELISA, Huh-7 cells. Type of assay: cell-based, human. The note with it: for C4 secretion, percent maximum reduction in protein levels: Huh-7, 72 h, ± standard deviation. As to the method:
as §4, §5, §6

For a further assay, the system named is complement C3 protein. The assay can be described thus: Secreted complement protein ELISA, Huh-7 cells. It is filed as cell-based, human. Conditions: for C3 secretion, percent maximum reduction in protein levels: Huh-7, 72 h, ± standard deviation. As for the experimental part: as §4, §5, §6
A further assay has as its system C5 mRNA. The assay can be described thus: Complement gene mRNA expression, TaqMan real-time PCR, Huh-7 cells. It is filed as cell-based, human. Conditions: for IC50: Homo sapiens.
From the text: as §1
(§7) Huh-7 and HepG2 cells are liver-derived cell lines and are models for what can occur in the liver. Huh-7 cells (JCRB Cell Bank) were introduced to 96-well plates (^˜2.5×10^5 per well) in 100 μL DMEM containing 10% (v/v) FBS, 100 U/mL penicillin, 100 ug/mL streptomycin and 5 ug/mL plasmocin (all reagents from Gibco, except for the former, which was obtained from Invivogen). After 24 h, Huh-7 cells were treated with compounds in the same media formulation used for plating, and supplemented with 0.1% DMSO for the amount of time indicated in tables 2, 3, and 4. For select experiments, 24 h post-plating, cells were treated with cytokines and the compound of interest simultaneously, for a total treatment time of 48 h. Alternatively, 24 h after plating, cells were pre-treated with cytokines for 24 h before adding the compound of interest for 48 h. HepG2 cells (ATCC) were cultured in 96-well plates (^˜2.5×10^5 per well) in MEM containing 10% FBS, 1× non-essential amino acids, 1 mM sodium pyruvate, 2 mM L-glutamine, 100 U/mL penicillin, 100 ug/mL streptomycin and 5 ug/mL plasmocin. Serum amount was reduced to 0.5% for treatments with compound or cytokines. Timing of treatment of HepG2 cells with compounds and cytokines was as described for Huh-7 cells. Primary human hepatocytes (CellzDirect/Life Technologies) were plated in collagen coated 96-well plates at 70 000 cells/well, then overlaid with Matrigel™ as recommended by the supplier. Cells were treated with compounds of interest and/or cytokines for the indicated time points in the recommended media supplemented with 0.1% DMSO and 10% FBS (v/v). Cells were harvested by mRNA Catcher PLUS Kit (Life Technologies) followed by real-time PCR using the RNA UltraSense One-Step qRT-PCR System. The level of the mRNA of interest was measured by TaqMan real-time PCR relative to the endogenous control cyclophilin A in the same sample. Data were acquired using the ViiA-7 Real Time PCR System (Applied Biosystems).
(§8) Downregulation of expression of components of the complement cascade will result in reduced activity of the pathway and thus will constitute a positive result. Tables 2 and 3 list the concentration of compounds at which the level of the indicated mRNA is reduced by 50%, as well as the duration of treatment with compound. Table 4 lists the maximum reduction in the indicated mRNA measured in primary human hepatocytes treated with compounds for up to 72 hours. FIGS. 1, 2, 3 and 4 show effects of compounds on cytokine-induced (i.e. inflammatory) expression of complement genes in Huh-7 cells and HepG2 cells.

The next assay concerns C4a/C4b mRNA. The description is as above. It is filed as cell-based, human. Conditions: for IC50: Homo sapiens.
From the text: as §1, §7, §8

In the next assay the test system is C3 mRNA. Described as above. Type of assay: cell-based, human. Conditions: for IC50: Homo sapiens.
From the text: as §1, §7, §8

The mark [1] stands for this setting: read-out: C5 (72 h) mRNA, half maximal inhibitory concentration (IC50), Huh-7, 72 h treatment.
Setting [2] is: read-out: C4a/C4b (72 h) mRNA, half maximal inhibitory concentration (IC50), Huh-7, 72 h treatment.
Setting [3] is: Huh-7, 48 h treatment, read-out: C3 (48 h) mRNA, half maximal inhibitory concentration (IC50).
The mark [4] stands for this setting: 30 uM, Huh-7 treated simultaneously with IL-6.
Where [5] appears, read: Huh-7 pre-treated with cytokines.
Setting [6] is: Huh-7 treated simultaneously with cytokines.

As for `Cc1sc2c(c1C)C(c1ccc(Cl)cc1)=N[C@@H](CC(=O)OC(C)(C)C)c1nnc(C)n1-2` [JQ1, (S)-tert-butyl 2-(4-(4-chlorophenyl)-2,3,9-trimethyl-6H-thieno[3,2-f][1,2,4]triazolo[4,3-a][1,4]diazepin-6-yl)acetate, reference compound], the IC50 with C1S mRNA amounted to 0.3 µM; with MBL2 mRNA, 0.16 µM; in the assay on C5 mRNA (setting [1]), 0.27 µM; with C4a/C4b mRNA (setting [2]) it was 0.07 µM; in the assay on C4a/C4b mRNA (Huh-7, 48 h treatment (Table 3), read-out: mRNA expression in Huh-7 cells: IC50 (uM), C4) it was 0.065 µM; with C3 mRNA (Huh-7, 48 h treatment (Table 3), read-out: mRNA expression in Huh-7 cells: IC50 (uM), C3), 0.18 µM. The IC50 in the assay with C3 mRNA (setting [3]) was found to be 0.2 µM. Moreover, the “C5 secretion, percent maximum reduction in protein levels” value with complement C5 protein (0.75 uM) came to 50 ± 13%. Moreover, the “C4 secretion, percent maximum reduction in protein levels” value in the assay on complement C4 protein (0.75 uM) is recorded as 81 ± 6%. In addition, in the assay with complement C3 protein (0.75 uM), the “C3 secretion, percent maximum reduction in protein levels” value is listed as 99 ± 1%.

Consider `COc1cc(OC)c2c(=O)[nH]c(-c3cc(C)c(OCCO)c(C)c3)nc2c1` [RVX000222, 2-(4-(2-hydroxyethoxy)-3,5-dimethylphenyl)-5,7-dimethoxyquinazolin-4(3H)-one], for which the IC50 with C1S mRNA was 18.9 µM; in the assay with MBL2 mRNA it was 16.3 µM; with C5 mRNA (setting [1]), 21.8 µM; in the assay with C5 mRNA (Huh-7, 48 h treatment, read-out: C5 (48 h) mRNA, half maximal inhibitory concentration (IC50)) it was more than 30 µM; in the assay with C4a/C4b mRNA (setting [2]), 5.4 µM; in the assay with C4a/C4b mRNA (Huh-7, 48 h treatment, read-out: C4a/C4b (48 h) mRNA, half maximal inhibitory concentration (IC50)), 6.3 µM. Besides, the IC50 with C3 mRNA (setting [3]) came to 1.9 µM. Moreover, the “C5 secretion, percent maximum reduction in protein levels” value in the assay with complement C5 protein (30 uM) was determined as 53 ± 7%. For the same molecule, the “secretion of C5 protein (FIG. 5)” value with complement C5 protein (setting [4]) is on record as “reduces secretion”. Moreover, the “C4 secretion, percent maximum reduction in protein levels” value in the assay with complement C4 protein (30 uM) is reported as 79 ± 3%. For the same molecule, the “secretion of C4 protein (FIG. 5)” value in the assay on complement C4 protein (setting [4]) is recorded as “reduces secretion”. In addition, the “C3 secretion, percent maximum reduction in protein levels” value with complement C3 protein (30 uM) stood at 87 ± 9%. The “secretion of C3 protein (FIG. 5)” value in the assay on complement C3 protein (setting [4]) is “reduces secretion”. In addition, in the assay on C5 mRNA (setting [5]), the “expression of complement component 5 at the mRNA level (FIG. 3)” value was “reduces expression”. Also, in the assay on C5 mRNA (setting [6]), the “expression of complement component 5 at the mRNA level (FIG. 1)” value is “reduces expression”. Moreover, in the assay on C4a/C4b mRNA (setting [5]), the “expression of complement component 4 at the mRNA level (FIG. 3)” value is given as “reduces expression”. In addition, in the assay with C4a/C4b mRNA (setting [6]), the “expression of complement component 4 at the mRNA level (FIG. 1)” value is on record as “reduces expression”. For the same molecule, the “expression of complement component 3 at the mRNA level (FIG. 3)” value in the assay with C3 mRNA (setting [5]) is reported as “reduces expression”. Also, in the assay with C3 mRNA (setting [6]), the “expression of complement component 3 at the mRNA level (FIG. 1)” value is reported as “reduces expression”.
